The values that follow come from article PMC4513954 (Journal of medicinal chemistry, 2015).

Read-outs that look alike come from different tables or passages of the source.

In one series the test system is Bacillus anthracis. The settings on record: cited from earlier work.
The test system of the next series is Yersinia pestis. The settings on record: cited from earlier work.
The target of series [1] is undecaprenyl diphosphate synthase (UPPS). Put plainly: UPPS inhibition. The settings on record: read-out: UPPS IC50; both UPPS enzymes, approximate. The class given is biochemical.
Another series deals with E. coli (K12). The series can be described thus: E. coli cell growth inhibition. As to conditions: Escherichia coli, read-out: E. coli EC50, cell growth inhibition, E. coli K12.
A further series concerns S. aureus. As to conditions: S. aureus in vitro; cited from earlier work.
In series [2] the test system is undecaprenyl diphosphate synthase (UPPS). As to conditions: read-out: UPPS IC50; cited from earlier work.
The next series deals with MRSA strain (S. aureus). The settings on record: cited from earlier work.
Series [3] in a line: Toxicity against mammalian cells. It counts as cell-based.

`C(=C\c1cc2ccc(C3=NCCN3)cc2[nH]1)/c1cc2ccc(C3=NCCN3)cc2[nH]1.Cl` [Compound 8]: the “efficacy in mice model of infection” value in the series with Bacillus anthracis and in the series on Yersinia pestis was “effective” in each case.

Consider `c1cc2cc(-c3ccc(-c4cc5ccc(C6=NCCN6)cc5[nH]4)cc3)[nH]c2cc1C1=NCCN1` [Compound 7, 1,4-bis(6-(4,5-dihydro-1H-imidazol-2-yl)-1H-indol-2-yl)benzene], for which the “efficacy in mice model of infection” value in the series on Bacillus anthracis and in the series on Yersinia pestis was “effective” each time.

Consider `O=C(Nc1cccc(C2=NCCCN2)c1)c1ccc(-c2ccc(C(=O)Nc3cccc(C4=NCCCN4)c3)cc2)cc1` [Compound 10, N4,N4'-bis(3-(1,4,5,6-tetrahydropyrimidin-2-yl)phenyl)biphenyl-4,4'-dicarboxamide], for which the IC50 in series [1] is roughly 5000 nM. Also, the EC50 in the series on E. coli (K12) is less than 1000 nM.

As for `O=C(Nc1cccc(C2=NCCN2)c1)c1ccc(-c2ccc(C(=O)Nc3cccc(C4=NCCN4)c3)cc2)cc1` [Compound 1, N4,N4'-bis(3-(4,5-dihydro-1H-imidazol-2-yl)phenyl)-[1,1'-biphenyl]-4,4'-bicarboxamide], in the series with S. aureus, the MIC is listed as ~ 250 ng/mL. In addition, the IC50 in series [2] is roughly 100 nM. Besides, the adverse side-effects entry in the series with MRSA strain (S. aureus) (S. aureus mouse model of infection) is “no adverse side-effects”. Moreover, the mice survived in the series on MRSA strain (S. aureus) (i.p. infection model with a MRSA strain) is 20/20. In series [3], this molecule yielded a concentration giving a half-maximal response (EC50) greater than 100000 nM.
